The target in assay [1] is Cyclin-dependent kinase 2/cyclin A (Homo sapiens, UniProt P24941). As to the kind of experiment: Inhibition of CDK2/Cyclin A. The class given is protein-complex assay.
The nature of assay [2]: Antiproliferative activity against ID8 cells. The format is functional, cell-based. Particulars: Mus musculus.
A further assay deals with MCF7. Description: Antiproliferative activity against MCF7 cells. The class given is functional, cell-based. Conditions: Homo sapiens.

As usually defined, the IC50 is the point on the concentration scale where inhibition reaches its midpoint. Regarding `CC(C)C[C@@H](NC(=O)OC(C)(C)C)C(=O)Nc1ccc(O)c2c(=O)cc(-c3ccccc3Cl)oc12`, the figures for the IC50 in assay [1] and in assay [2] were 417 µM and 17 µM, respectively.

In the case of `O=C(Nc1ccc(O)c2c(=O)cc(-c3ccccc3Cl)oc12)c1ccc(Cl)cc1`, the IC50 with MCF7 was 4.6 µM; in assay [1] it was 417 µM; in assay [2], 5.5 µM.

With `CCC(C)OC(=O)Nc1ccc(O)c2c(=O)cc(-c3ccccc3Cl)oc12` (stereo not given), the IC50 with MCF7 amounted to 30 µM; in assay [1], 417 µM; in assay [2], 18 µM.

As for `O=C(Nc1c(O)cc(O)c2c(=O)cc(-c3ccccc3Cl)oc12)c1ccccc1`, the IC50 is 8.5 µM with MCF7 and 91 µM in assay [1].

Consider `O=C(Nc1c(O)cc(O)c2c(=O)cc(-c3ccccc3Cl)oc12)c1ccc(Cl)cc1`, for which the results for the IC50 (in the assay on MCF7; in assay [1]) were 13 µM and 339 µM, respectively.

For the molecule `CN1CC[C@H](c2c(O)cc(O)c3c(=O)cc(-c4ccccc4Cl)oc23)[C@H](O)C1` [ALVOCIDIB], the IC50 is 0.026 µM in the assay with MCF7 and 0.007 µM in assay [2].

Regarding `COc1ccc(C(=O)Nc2ccc(O)c3c(=O)cc(-c4ccccc4Cl)oc23)cc1`, the IC50 came out at 3.5 µM with MCF7, 383 µM in assay [1] and 5 µM in assay [2].

Consider `CC(C)(C)OC(=O)N[C@H](Cc1ccccc1)C(=O)Nc1ccc(O)c2c(=O)cc(-c3ccccc3Cl)oc12`, for which the IC50 was found to be 4.5 µM in the assay with MCF7, 417 µM in assay [1] and 12 µM in assay [2].

In the case of `C[C@@H](NC(=O)OC(C)(C)C)C(=O)Nc1ccc(O)c2c(=O)cc(-c3ccccc3Cl)oc12`, the values for the IC50 (with MCF7; in assay [2]) were 5.5 µM and 104 µM, respectively.

Regarding `O=c1cc(-c2ccccc2Cl)oc2c(N3CCOCC3)ccc(O)c12`, the IC50 with MCF7 was 20 µM; in assay [1], 417 µM; in assay [2], 7.9 µM.

Take `Cc1ccc(C(=O)Nc2c(O)cc(O)c3c(=O)cc(-c4ccccc4Cl)oc23)cc1`: the concentration for half-maximal inhibition (IC50) in the assay on MCF7 was determined as 9.7 µM; in assay [1] it was 90 µM.

On to `C[C@H](NC(=O)OC(C)(C)C)C(=O)Nc1ccc(O)c2c(=O)cc(-c3ccccc3Cl)oc12`, for which the IC50 came out at 5.5 µM in the assay on MCF7, 417 µM in assay [1] and 9.8 µM in assay [2].

For the molecule `CSCC[C@@H](NC(=O)OC(C)(C)C)C(=O)Nc1ccc(O)c2c(=O)cc(-c3ccccc3Cl)oc12`, the results for the IC50 (with MCF7; in assay [2]) were 2.8 µM and 13 µM, respectively.

As to `CC(C)C[C@H](NC(=O)OC(C)(C)C)C(=O)Nc1ccc(O)c2c(=O)cc(-c3ccccc3Cl)oc12`, the IC50 in the assay on MCF7 came to 4 µM; in assay [1] it was 417 µM; in assay [2], 5.1 µM.

Consider `CSCC[C@H](NC(=O)OC(C)(C)C)C(=O)Nc1ccc(O)c2c(=O)cc(-c3ccccc3Cl)oc12`, for which the values for the IC50 (in the assay with MCF7; in assay [2]) were 20 µM and 6.2 µM, respectively.

`CC(C)(C)OC(=O)N[C@@H](Cc1ccccc1)C(=O)Nc1ccc(O)c2c(=O)cc(-c3ccccc3Cl)oc12`: the IC50 in the assay with MCF7 was 7.1 µM; in assay [1], 417 µM; in assay [2], 5.3 µM.

Consider `Cc1ccc(C(=O)Nc2ccc(O)c3c(=O)cc(-c4ccccc4Cl)oc23)cc1`, for which the IC50 stood at 10 µM with MCF7 and 16 µM in assay [2].

As to `COc1ccc(C(=O)Nc2c(O)cc(O)c3c(=O)cc(-c4ccccc4Cl)oc23)cc1`, the IC50 was found to be 13 µM in the assay on MCF7 and 54 µM in assay [1].

`O=C(Nc1ccc(O)c2c(=O)cc(-c3ccccc3Cl)oc12)c1ccccc1`: the IC50 with MCF7 worked out at 7.1 µM; in assay [1], 417 µM; in assay [2], 13 µM.

`O=C(Nc1ccc(O)c2c(=O)cc(-c3ccccc3Cl)oc12)c1ccc(Cl)c(Cl)c1`: the IC50 stood at 15 µM in the assay with MCF7, 217 µM in assay [1] and 13 µM in assay [2].

(Values after ChEMBL document CHEMBL1145527, “Design, synthesis, and antiproliferative and CDK2-cyclin a inhibitory activity of novel flavopiridol analogues” (Bioorg Med Chem, 2007).)
